In US20110269797A1, “ANLN PROTEIN AS AN ENDOCRINE TREATMENT PREDICTIVE FACTOR” (ATLAS ANTIBODIES AB, priority 2008, published 2011):
“Also recorded” adds a separate entry of the source.

Columns and labels:
ERα+/PR− tumors = conditions: follow-up period of 6 years, Dowsett 2005; cited from earlier work
[1] = test system: stage II primary breast carcinoma; assay: Randomized premenopausal tamoxifen trial, Cohort II TMA, Kaplan-Meier survival analysis by ANLN protein level; type: in vivo, human
Description: Median age at diagnosis was 45 (25-57) years. Median follow-up was 13.9 years and less than 2% of the patients had received adjuvant chemotherapy. The study design is described in detail elsewhere (Rydén L et al, Eur J Cancer, 2005, 41(2): 256-64). Ethical permission was obtained from the Local Ethics Committees at Lund and Linkoping Universities.
All cases had been histopathologically re-evaluated on hematoxylin and eosin stained slides. TMA:s were constructed by sampling 2×0.6 mm cores per case from areas representative of invasive cancer, using an automated arraying device (ATA-27, Beecher Inc, Sun Prairie, Wis., USA). The TMA:s were prepared and automated IHC was performed as described in section 3 above, using the ANLN protein antibody prepared as described in section 2 above. IHC staining of ER had been performed previously. In line with current clinical praxis, a cut-off at 10% positive nuclei was used to define hormone receptor positivity.
For statistical analyses, categories were based on nuclear fraction (nf). nf was evaluated as in Examples, section 4, above. As with “the fraction of stained cells” in Examples, Section 3 above, nf was classified as ≦1%, 2-25%, 26-75% or >75%. For this purpose the 2-25% group were split into two groups namely 2-10% and >10-25%. Based on the survival trends for all different strata, dichotomized variables were constructed for further statistical analyses. […] Subsequently, groups denoted “high” or “low” were established based on ANLN protein expression. In a first analysis, the “high” group represented a nuclear fraction (nf) of >1%, and the “low” group a nuclear fraction≦1%. In a second analysis, the “high” group represented a nuclear fraction (nf) of >10%, and the “low” group a nuclear fraction≦10%.
In a third analysis, the “high” group represented a nuclear fraction (nf) of 26%, and the “low” group a nuclear fraction≦25%. This classification of samples was used for OS, RFS and BOSS analysis according to the Kaplan-Meier estimator, and the log-rank test was used to compare survival in different strata. All statistical tests were two-sided, and p-values of <[…] were considered significant. All calculations were made with the statistical package SPSS 16.0 (SPSS Inc. Ill., USA).

primary breast cancer = assay: Consecutive cohort TMA (Cohort I), survival analysis of tamoxifen-treated ER+ subjects by ANLN protein level; type: in vivo, human; conditions: ER+ subjects given adjuvant tamoxifen; cut off nf 1%; FIG. 6, p=0.018
Description: Archival formalin-fixed paraffin-embedded tissue from 498 patients diagnosed with primary breast cancer between 1988 and 1992 was collected from the Department of Pathology, Malmo University Hospital, Sweden. The median age of patients was 65 (range 27-96) years and median follow-up time was 128 months (0-207). Information regarding the date of death was obtained from the regional cause-of-death registries for all patients. Ethical permission was obtained from the Local Ethics Committee of Lund University.
All 498 cases of breast cancer were histopathologically reevaluated on slides stained with hematoxylin and eosin. TMA:s were constructed by sampling 2×1.0 mm cores per case from areas representative of invasive cancer, using a manual arraying device (ATA-27, Beecher Inc, Sun Prairie, Wis., USA). The TMA:s were prepared and automated IHC was performed as described in section 3 above, using the ANLN protein antibody prepared as described in section 2 above. IHC staining of ER had been performed previously. […]
For statistical analyses, the nucleic fraction (nf) level was evaluated, in line with what is described in Examples, Section 3 above. The nuclear fraction was subjectively evaluated in accordance to standards used in clinical histo-pathological diagnostics and outcome was classified as ≦1%, 2-25%, 26-75% or >75%. […]

breast cancer = conditions: cited from earlier work

| Compound | recurrence rate compared to patients treated with tamoxifen (ERα+/PR− tumors) | benefit from tamoxifen treatment (RFS, BCSS, OS) ([1]; ER positive ANLN protein low patients (nf≦10%), TAM vs ctrl, FIGS. 14a, 15a, 16a) | impact of tamoxifen treatment on survival (RFS, BCSS, OS) ([1]; ER positive patients with high ANLN protein level (nf>10%), TAM vs ctrl, FIGS. 14b, 15b, 16b) | RFS of ANLN protein low versus ANLN protein high patients treated with tamoxifen ([1]; adjuvant tamoxifen 2 years, cut off 1% and 10%, FIG. 8) | effect of tamoxifen treatment on RFS ([1]; ductal carcinoma subgroup, ANLN protein low (nf≦10%), TAM vs ctrl, FIG. 20a) | impact of tamoxifen treatment on RFS outcome ([1]; ductal carcinoma subgroup, high ANLN protein level (nf>10%), TAM vs ctrl, FIG. 20b) | impact of tamoxifen treatment on RFS outcome ([1]; subjects with high ANLN protein level (nf>10%), TAM 2 years vs ctrl, FIG. 11) | probability of recurrence free survival, ANLN protein low versus high subjects treated with tamoxifen (primary breast cancer) | ERα positive patients that do not respond to tamoxifen treatment (breast cancer; Riggins 2007, Gruvberger-Saal 2007) | breast cancer mortality (breast cancer; five years adjuvant treatment after primary surgery, ER positive tumors, irrespective of lymph node status, EBCTCG 1998) |
| --- | --- | --- | --- | --- | --- | --- | --- | --- | --- | --- |
| CC(C)(C#N)c1cc(Cn2cncn2)cc(C(C)(C)C#N)c1 [anastrozole] | halved |  |  |  |  |  |  |  |  |  |
| CC/C(=C(\c1ccccc1)c1ccc(OCCN(C)C)cc1)c1ccccc1 [tamoxifen] |  | particularly beneficial; also recorded: at least slightly, benefit | limited or no impact | significantly better | effective | no positive impact on the outcome | no positive impact on the outcome | significantly better | 30-40% | reduces |
